Results: patent publication US20220202948A1, “Agent for Eliminating Pluripotent Stem Cells” (Sumitomo Dainippon Pharma Co., Ltd., priority 2019, published 2022)
Square brackets hold non-standard residues; d marks the D form. Peptide text beside a SMILES is read from it. * marks the point of attachment. Dolaproine = CO[C@@H]([C@@H]1CCCN1)[C@@H](C)C(=O)O; Dil = CC[C@H](C)[C@H](NC)[C@@H](CC(=O)O)OC; X1 = C[C@@H](N*)[C@@H](O)c1ccccc1; NMeV = CN[C@H](C(=O)O)C(C)C

Experiments:
[1] = molecular target: T1, porcine tubulin (Sus scrofa, UniProt P02550+P02554); assay: Activity for inhibiting microtubule polymerization using porcine tubulins (2), microtubule polymerization rate; format: biochemical; conditions: compound 9.1 μM, 60 minutes after assay initiation, relative to wells without compound; lower = stronger inhibition
T1 construct: purchased Cytoskeleton Inc. BK006P
Procedure: (§1) Using a tubulin polymerization inhibition assay kit (catalog number: BK006P) purchased from Cytoskeleton Inc., the polymerization inhibitory activity of compounds of Examples at a concentration of 9.1 μM was evaluated in accordance with the protocol appended to the kit. To a 96 well microplate, 80 mM PIPES pH 6.9, 2 mM MgCl, 0.5 mM EGTA and 5% DMSO buffered solution of the compound to be evaluated was added in an amount of 10 μL for each well, and to these wells, 3 mg/mL porcine tubulin 80 mM PIPES pH 6.9, 2 mM MgCl, 0.5 mM EGTA, 1 mM GTP and 10.2% glycerol solution was added in an amount of 100 μL for each well. In order to examine a state in which tubulins polymerize over time, the absorbance at 340 nm was measured at 37° C., using a microplate reader. As the polymerization of tubulins progresses, the absorbance at 340 nm rises.
The tubulin polymerization inhibitory activity was evaluated based on the proportion of polymerized tubulins 60 minutes after the assay initiation. Specifically, the microtubule polymerization rate (%) was calculated by dividing the absorbance of tubulins that had polymerized at wells to which the compound had been added by the absorbance of tubulins that had polymerized at wells to which the compound had not been added, and multiplying the obtained value by 100.

[2] = Membrane permeability test, parallel artificial membrane permeability assay (PAMPA); format: in vitro ADME; conditions: pH 7.4, 37° C.; for Papp at 4 h: read-out: permeability coefficient Pe (pH 7.4)
Procedure: By the parallel artificial membrane permeability assay (PAMPA), the membrane permeability of compounds of Examples was examined as follows: To the donor plate, System solution (pION inc.) and GIT Lipid-0 (pION inc.) were added in an amount of 200 μL and 4 μL for each well, respectively. To the acceptor plate, Acceptor Sink Buffer (pION inc.) was added in an amount of 200 μL. Both plates were superposed and incubated at 37° C. for 4 hours, and then, UVs in the solutions on the side of acceptor and on the side of donor were measured with a UV plate reader (190 to 500 nm). Compounds with poor UV absorption were measured by LC-MS. The permeability coefficient Pe (10^−6 cm/sec) of the drug was calculated by the following formula.

[3] = molecular target: T1, porcine tubulin; assay: Activity for inhibiting microtubule polymerization using porcine tubulins (1), tubulin polymerization inhibition assay kit; format: biochemical; conditions: compound 0.91 μM, absorbance at 340 nm at 37° C., FIG. 1
Procedure: as §1, with “Examples with” for “Examples at”, “of 0.91” for “of 9.1”, “kit. In summary of the protocol, to” for “kit. To”

T1 sequence (P02550 whole entry): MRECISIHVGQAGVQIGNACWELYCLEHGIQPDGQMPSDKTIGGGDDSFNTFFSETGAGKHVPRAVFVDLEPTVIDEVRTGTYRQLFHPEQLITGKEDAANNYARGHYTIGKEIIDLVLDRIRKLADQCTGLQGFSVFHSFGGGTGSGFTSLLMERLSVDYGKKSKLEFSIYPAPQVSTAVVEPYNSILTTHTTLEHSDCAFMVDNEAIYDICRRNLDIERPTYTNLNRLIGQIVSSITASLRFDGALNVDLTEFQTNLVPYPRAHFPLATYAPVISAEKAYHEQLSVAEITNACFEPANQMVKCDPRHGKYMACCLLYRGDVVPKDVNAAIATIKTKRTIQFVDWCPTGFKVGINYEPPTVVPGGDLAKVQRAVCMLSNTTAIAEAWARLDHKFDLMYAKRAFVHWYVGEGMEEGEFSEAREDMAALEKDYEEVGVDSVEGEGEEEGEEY
T1 sequence (P02554 whole entry): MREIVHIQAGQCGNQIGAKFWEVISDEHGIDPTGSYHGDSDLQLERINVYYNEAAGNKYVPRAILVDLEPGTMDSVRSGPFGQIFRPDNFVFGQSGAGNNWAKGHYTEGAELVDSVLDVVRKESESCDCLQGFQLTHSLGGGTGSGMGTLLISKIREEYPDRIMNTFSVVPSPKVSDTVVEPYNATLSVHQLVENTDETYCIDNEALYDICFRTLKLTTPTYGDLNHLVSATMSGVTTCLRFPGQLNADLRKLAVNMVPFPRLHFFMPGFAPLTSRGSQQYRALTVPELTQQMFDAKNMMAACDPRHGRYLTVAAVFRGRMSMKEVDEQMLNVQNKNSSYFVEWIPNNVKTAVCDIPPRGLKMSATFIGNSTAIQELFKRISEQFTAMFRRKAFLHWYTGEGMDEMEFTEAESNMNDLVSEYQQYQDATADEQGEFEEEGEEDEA

Structure (SMILES)	Microtubule polymerization rate (%) [1] [%]	Papp at 4 h [2] [×10⁻⁶ cm/s]	activity for inhibiting microtubule polymerization [3]	permeability coefficient Pe (pH 7.4) ([2]; 4 hours)
CN[C@H](C(=O)N[C@H](C(=O)N(C)[C@H](/C=C(\C)C(=O)N[C@H](CCC(=O)O)C(=O)NCCN1C(=O)CC(SC[C@H](N)C(=O)O)C1=O)C(C)C)C(C)(C)C)C(C)(C)c1ccccc1 (stereo partly drawn) [Example 46]	0	3.5		
CN[C@H](C(=O)N[C@H](C(=O)N(C)[C@H](/C=C(\C)C(=O)N[C@@H](CCC(=O)O)C(=O)O)C(C)C)C(C)(C)C)C(C)(C)c1cn(C)c2ccccc12 [Example 6]	4	< 0.1		
CN[C@H](C(=O)N[C@H](C(=O)N(C)[C@H](/C=C(\C)C(=O)N[C@H](CCC(=O)NCCCN1C(=O)CC(SC[C@H](N)C(=O)O)C1=O)C(=O)O)C(C)C)C(C)(C)C)C(C)(C)c1cn(C)c2ccccc12 (stereo partly drawn) [Example 54]	0	< 0.1		
CN[C@H](C(=O)N[C@H](C(=O)N(C)[C@H](/C=C(\C)C(=O)N[C@H](CCC(=O)NCCN1C(=O)CC(SC[C@H](N)C(=O)O)C1=O)C(=O)O)C(C)C)C(C)(C)C)C(C)(C)c1ccccc1 (stereo partly drawn) [Example 37, (3S,6S,9S,10E,14R)-14-(3-{[2-(3-{[(2R)-2-Amino-2-carboxyethyl]sulfanyl}-2,5-dioxopyrrolidin-1-yl)ethyl]amino}-3-oxopropyl)-6-tert-butyl-8,11-dimethyl-4,7,12-trioxo-3-(2-phenylpropan-2-yl)-9-(propan-2-yl)-2,5,8,13-tetraazapentadec-10-en-15-oic acid]	9	0.2		
CN[C@H](C(=O)N[C@H](C(=O)N(C)[C@H](/C=C(\C)C(=O)N[C@@H](CCC(=O)NCCN1C(=O)CC(SC[C@H](N)C(=O)O)C1=O)C(=O)O)C(C)C)C(C)(C)C)C(C)(C)c1ccccc1 (stereo partly drawn) [Example 42]	0	2.2		
CN[C@H](C(=O)N[C@H](C(=O)N(C)[C@H](/C=C(\C)C(=O)N[C@H](CCC(=O)O)C(=O)O)C(C)C)C(C)(C)C)C(C)(C)c1cn(C)c2ccccc12 [Example 1, N,β,β-tetramethyl-L-tryptophyl-N-[(3S,4E)-6-{[(1R)-1,3-dicarboxypropyl]amino}-2,5-dimethyl-6-oxohex-4-en-3-yl]-N,3-dimethyl-L-valinamide]		< 0.1	comparable activities for inhibiting microtubule polymerization	
CC[C@H](C)[C@@H]([C@@H](CC(=O)N1CCC[C@H]1[C@H](OC)[C@@H](C)C(=O)N[C@H](C)[C@@H](O)c1ccccc1)OC)N(C)C(=O)[C@@H](NC(=O)[C@@H](NC)C(C)C)C(C)C [MMAE, monomethyl auristatin, reference compound] (H-[NMeV]V[Dil][Dolaproine]-X1)			comparable activities for inhibiting microtubule polymerization	15.3 10^−6 cm/sec
CN[C@H](C(=O)N[C@H](C(=O)N(C)[C@H](/C=C(\C)C(=O)N[C@@H](CCC(=O)NCCN1C(=O)CC(SC[C@H](N)C(=O)O)C1=O)C(=O)O)C(C)C)C(C)(C)C)C(C)(C)c1cn(C)c2ccccc12 (stereo partly drawn) [Example 49]	0	< 0.1		
CN[C@H](C(=O)N[C@H](C(=O)N(C)[C@H](/C=C(\C)C(=O)N[C@@H](CCCCNC(=O)CCCN1C(=O)CC(SC[C@H](N)C(=O)O)C1=O)C(=O)O)C(C)C)C(C)(C)C)C(C)(C)c1cn(C)c2ccccc12 (stereo partly drawn) [Example 57]		< 0.1		
CN[C@H](C(=O)N[C@H](C(=O)N(C)[C@H](/C=C(\C)C(=O)NCCCC[C@@H](NC(=O)CCCN1C(=O)CC(SC[C@H](N)C(=O)O)C1=O)C(=O)O)C(C)C)C(C)(C)C)C(C)(C)c1ccccc1 (stereo partly drawn) [Example 58]	0	3		
CN[C@H](C(=O)N[C@H](C(=O)N(C)[C@H](/C=C(\C)C(=O)N[C@H](CCC(=O)O)C(=O)O)C(C)C)C(C)(C)C)C(C)(C)c1ccccc1 [Example 2, N,β,β-Trimethyl-L-phenylalanyl-N-[(3S,4E)-6-{[(1R)-1,3-dicarboxypropyl]amino}-2,5-dimethyl-6-oxohex-4-en-3-yl]-N,3-dimethyl-L-valinamide]	2	< 0.1		
CN[C@H](C(=O)N[C@H](C(=O)N(C)[C@H](/C=C(\C)C(=O)O)C(C)C)C(C)(C)C)C(C)(C)c1cn(C)c2ccccc12 [Hemiasterlin, reference compound]	0	25.6	comparable activities for inhibiting microtubule polymerization	
CN[C@H](C(=O)N[C@H](C(=O)N(C)[C@H](/C=C(\C)C(=O)NCCCC[C@@H](NC(=O)CCCN1C(=O)CC(SC[C@H](N)C(=O)O)C1=O)C(=O)O)C(C)C)C(C)(C)C)C(C)(C)c1cn(C)c2ccccc12 (stereo partly drawn) [Example 39]	2	1.4		
CN[C@H](C(=O)N[C@H](C(=O)N(C)[C@H](/C=C(\C)C(=O)N[C@H](CCC(=O)NCCCCN1C(=O)CC(SC[C@H](N)C(=O)O)C1=O)C(=O)O)C(C)C)C(C)(C)C)C(C)(C)c1ccccc1 (stereo partly drawn) [Example 48]	0	5.8		
CN[C@H](C(=O)N[C@H](C(=O)N(C)[C@H](/C=C(\C)C(=O)N[C@@H](CC(=O)NCCN1C(=O)CC(SC[C@H](N)C(=O)O)C1=O)C(=O)O)C(C)C)C(C)(C)C)C(C)(C)c1ccccc1 (stereo partly drawn) [Example 41]		< 0.1		
CN[C@H](C(=O)N[C@H](C(=O)N(C)[C@H](/C=C(\C)C(=O)N[C@H](CC(=O)NCCN1C(=O)CC(SC[C@H](N)C(=O)O)C1=O)C(=O)O)C(C)C)C(C)(C)C)C(C)(C)c1ccccc1 (stereo partly drawn) [Example 40]		3		
CN[C@H](C(=O)N[C@H](C(=O)N(C)[C@H](/C=C(\C)C(=O)N[C@H](CCCCN)C(=O)O)C(C)C)C(C)(C)C)C(C)(C)c1cn(C)c2ccccc12 [Example 7]		0.8		
C/C(=C\[C@H](C(C)C)N(C)C(=O)[C@@H](NC(=O)[C@H]1CCCCN1C(C)C)C(C)(C)C)C(=O)N[C@H](CCC(=O)O)C(=O)O [Example 3, N-[(2E,4S)-2,5-Dimethyl-4-(methyl {3-methyl-N-[(2R)-1-(propan-2-yl)piperidine-2-carbonyl]-L-valyl}amino)hex-2-enoyl]-D-glutamic acid]	5	< 0.1		
CN[C@H](C(=O)N[C@H](C(=O)N(C)[C@H](/C=C(\C)C(=O)N[C@@H](CCC(=O)O)C(=O)O)C(C)C)C(C)(C)C)C(C)(C)c1ccccc1 [Example 9]	5	< 0.1		
CN[C@H](C(=O)N[C@H](C(=O)N(C)[C@H](/C=C(\C)C(=O)N[C@H](CC(=O)O)C(=O)O)C(C)C)C(C)(C)C)C(C)(C)c1cn(C)c2ccccc12 [Example 5]		< 0.1		
